The values below come from patent US20260345488A1, “PHARMACEUTICAL FORMULATIONS” (Gelteq Limited, priority 2023, published 2026).

SMILES strings stand for the structures.

For data set [1] the following is noted: classification on solubility and permeability; cited from earlier work.
Data set [2] can be described thus: Compatibility of pH adjustors with the formulation. The note with it: in ibuprofen gel formulation. It is filed as physicochemical. How it is done:
Hydrochloric acid and citric acid were tested as pH adjustors. […] As a consequence, it was selected as the preferred pH adjusting agent. Further details of the ibuprofen gels of the invention are set out in Example 1.

On to `c1ccc(-c2ccc(C(c3ccccc3)n3ccnc3)cc2)cc1` (centres unmarked) [Bifonazole], for which the BCS class entry in data set [1] is on record as “Class IV”.
`Cl` [Hydrochloric acid]: the “compatibility / effect as pH adjustor” value in data set [2] is “precipitated and was not compatible with the formulation”.
For `O=C(O)Cc1ccccc1Nc1c(Cl)cccc1Cl` [Diclofenac], the BCS class entry in data set [1] was “class II”.
On to `COCCc1ccc(OCC(O)CNC(C)C)cc1` (centres unmarked) [Metoprolol], for which the BCS class result in data set [1] is “Class I”.
Turning to `NS(=O)(=O)c1cc2c(cc1Cl)NCNS2(=O)=O` [Hydrochlorothiazide], the BCS class entry in data set [1] is given as “class II”.
As for `CN/C(=N/CCSCc1nc[nH]c1C)NC#N` [Cimetidine], in data set [1], the BCS class entry is on record as “Class III”.
For the molecule `O=C(O)CC(O)(CC(=O)O)C(=O)O` [Citric acid], the “compatibility / effect as pH adjustor” value in data set [2] is “changed the pH significantly”.
As for `COc1ccc2cc([C@H](C)C(=O)O)ccc2c1` [Naproxen], in data set [1], the BCS class result was “Class II”.
